From US20130102838A1, “Oocyte Spindle-Associated Factors Improve Somatic Cell Cloning” (WORCESTER POLYTECHNIC INSTITUTE, priority 2007, published 2013)

How the values were obtained:
Metaphase II oocytes = assay: Induced enucleation of activated Metaphase II oocytes (2nd polar body extrusion); format: cell-based; conditions: MII oocytes activated with 7% EtOH or 2 μM ionomycin; Taxol 5 μg/mL, cycloheximide 10 μg/mL, demecolcine 0.4 μg/mL; control 3.7%
Description: Metaphase II oocytes are activated with 7% EtOH or 2 μM ionomycin, followed by treatment with Taxol (5 μg/mL), or cycloheximide (10 μg/mL) or demecolcine (0.4 μg/mL), resulting in the 2nd polar body extrusion.
With demecoleine-induced enucleation, activated oocytes are treated with the microttibuline destabilizing drug, demecolcine. The resulting cytoplasts are competent to support term developments. Often, cytoplasts fail to complete the second polar body extrusion. Induced enucleation can take place, just prior to activation or just after activation.

[1] = test system: mouse oocytes arrested at MII; conditions: standard ethanol activation protocol, data not shown
meiotic spindle = assay: Effect of demecolcine on meiotic spindle and chromatin in activated mouse oocytes; format: cell-based; conditions: 0.4 μg/mL, SrCl2-activated oocytes
Description: (§1) In order to induce superovulation in donor mice, female CF-1 mice (Charles River Laboratories) of breeding age were injected with Pregnant Mare Serum Gonadotropin (PMSG, Calbiochem) and Human Chorionic Gonadotropin (hCG, Calbiochem). For both hormones, 5IU was administered per mouse via intraperitioneal injection. PMSG was injected 64 hours before collection and hCG was given 48 hours later. Oviducts were dissected from mice euthanized by CO2 asphyxiation and placed in FHM media (Chemicon) at 37° C. Oocytes were separated from surrounding cumulus cells by a brief exposure to bovine hyaluronidase (HA, Sigma, 150 units/ml, <10 minutes). Oocytes with poor morphology (lysed, fragmented, dark pigmentation) were discarded. Oocytes were washed three times in FHM media and randomly sorted into treatment groups. Some oocytes were immediately fixed (see below) at Metaphase of Meiosis II (MII). […]
(§2) To localize Apc11, a polyclonal antibody raised in rabbits against N-terminal amino acids of human Apc11 (Santa Cruz) was used as a primary antibody. […] Imaging was accomplished on a Zeiss Axiovert 200M inverted fluorescence microscope coupled to a Roper CoolSnapFx camera through a 63× oil emersion objective and 10× eyepiece/camera lens. […]

Apc11 = assay: Effect of demecolcine on Apc11 spatial localization in mouse oocytes; format: cell-based; conditions: 0.4 μg/mL, SrCl2-activated oocytes, AII, TII, Interphase
Description: as §1, §2

Cdc20 = assay: Effect of demecolcine on Cdc20 localization in mouse oocytes; format: cell-based; conditions: 0.4 μg/mL, SrCl2-activated oocytes, throughout development
Description: (§3) In order to induce superovulation in donor mice, female CF-1 mice (Charles River Laboratories) of breeding age were injected with Pregnant Mare Serum Gonadotropin (PMSG, Calbiochem) and Human Chorionic Gonadotropin (hCG, Calbiochem). For both hormones, 5IU was administered per mouse via intraperitioneal injection. PMSG was injected 64 hours before collection and hCG was given 48 hours later. Oviducts were dissected from mice euthanized by CO2 asphyxiation and placed in FHM media (Chemicon) at 37° C. Oocytes were separated from surrounding cumulus cells by a brief exposure to bovine hyaluronidase (HA, Sigma, 150 units/ml, <10 minutes). Oocytes with poor morphology (lysed, fragmented, dark pigmentation) were discarded. Oocytes were washed three times in FHM media and randomly sorted into treatment groups. Some oocytes were immediately fixed (see below) at Metaphase of Meiosis II (MII).
(§4) For SrCl2 activation, the denuded oocytes were washed 3 times in FHM, 3 to 4 times in KSOM (without Ca^+2, Chemicon) equilibrated to 37° C. in 5% CO2, and then incubated in KSOM containing 10 mM strontium chloride at 37° C. with 5% CO2. After 15 minutes, some oocytes, depending on experimental design, were transferred to KSOM containing both SrCl2 (10 mM) and demecolcine (0.4 μg/mL) and incubated at 37° C. with 5% CO2. […]

Rec8 = assay: Effect of demecolcine on Rec8 localization in mouse oocytes; format: cell-based; conditions: 0.4 μg/mL, SrCl2-activated oocytes
Description: as §3, §4

For `C[C@@H]1C[C@@H]([C@H](O)CC2CC(=O)NC(=O)C2)C(=O)[C@@H](C)C1` [cycloheximide], the “induced enucleation, 2nd polar body extrusion” value (“induced enucleation” for short) (Metaphase II oocytes) was 16.3%.

In the case of `CCO` [ethanol], the “eggs per experiment that failed to leave MII” value [1] is reported as no more than 50%.

`CC(=O)O[C@H]1C(=O)[C@@]2(C)[C@H]([C@H](OC(=O)c3ccccc3)[C@]3(O)C[C@H](OC(=O)[C@H](O)[C@@H](NC(=O)c4ccccc4)c4ccccc4)C(C)=C1C3(C)C)[C@]1(OC(C)=O)CO[C@@H]1C[C@@H]2O` [Taxol] was tested, and the “induced enucleation” value (Metaphase II oocytes) was 3.6%.

`CN[C@H]1CCc2cc(OC)c(OC)c(OC)c2-c2ccc(OC)c(=O)cc21` [demecolcine] was tested, and the “induced enucleation” value (Metaphase II oocytes) was 54%, the extrusion of chromatin (meiotic spindle; Interphase (FIG. 16)) was “completely extrudes its chromatin in the second polar body” and the meiotic spindle integrity (meiotic spindle; compared to control eggs) was “severely disrupted”. The Apc11 staining pattern (Apc11) was “non-distinct ataxia across the entire oocyte with no evidence of colocalization in any stage of development”, the Cdc20 staining pattern (Cdc20) was “low levels of muddled signal across the cytoplasm” and the “Rec8 localization during Anaphase” value (Rec8; Anaphase II) was “aggregate in an area surrounding the chromatin, but not directly over it”. The “Rec8 localization during Telophase” value (Rec8; Telophase II, continues into Interphase) was “direct colocalization (purple spots) with the chromatin”.
